{
  "source": "patent US7300929B2",
  "about": "“Mediators of hedgehog signaling pathways, compositions and uses related thereto” (Curis, Inc., priority 1999, dated 2007)",
  "key": {"[1]": {"system": "Patched pathway in ptc-null cells", "assay": "Ptc-null assay (gli-1 mRNA by RT-PCR and real-time PCR)", "type": "cell-based, mouse", "settings": "3 days, 5 μM", "description": "[…] Total ribonucleic acid (RNA) was isolated from the cells and used for reverse transcriptase-polymerase chain reaction (RT-PCR). […] The gli-1 and actin mRNA samples were then loaded on 1.5% agarose gel and were detected by staining with ethidium bromide. The same samples were analyzed by the quantitative real-time polymerase chain reaction method to quantify the levels of gli-1 mRNA."}, "[2]": {"system": "Patched pathway / ultraviolet radiation-induced BCC tumors", "assay": "Adult BCC mouse skin punch assay", "type": "cell-based", "settings": "positive control, 6 days, vs vehicle", "description": "Ptc heterozygous transgenic mice were irradiated 3 times weekly for 6 months, during which time many small, and often microscopic, BCC tumors developed. Four-mm diameter skin punch explants, presumably containing BCC structures, were cultured for 6 days in the presence of vehicle, the positive control (jervine), or 5 μM D. At the end of the experiment, the explants were analyzed by X-gal staining to detect the level of Patched pathway activity, by histology to determine the effect of treatment on the morphology of ultraviolet radiation-induced BCCs, and by quantifying the level of gli-1 mRNA expression to characterize the extent of pathway inhibition."}},
  "data": [
    {"smiles": "CC1=C2C(=O)[C@H]3[C@@H](CC=C4C[C@@H](O)CC[C@@]43C)[C@@H]2CC[C@]12O[C@@H]1C[C@H](C)CN[C@H]1[C@H]2C", "note": "[jervine]", "values": [
      {"measurement": "gli-1 mRNA levels (quantitative real-time PCR)", "setting": "[1]", "result": "downregulated"},
      {"measurement": "expression of gli-1 mRNA (RT-PCR, agarose gel)", "setting": "[1]; vs vehicle", "result": "significantly decreased"},
      {"measurement": "number and size of BCC structures (X-gal staining)", "setting": "[2]", "result": "greatly decreased"}
    ]}
  ]
}
